System: human umbilical vain endothelial cells (HUVECs)
Assay: microfluidic wound healing assay (membrane deflection, cell depletion)
Format: cell-based
Experimental: Lentivirally transduced GFP HUVEC (human umbilical vain endothelial cells) were obtained from Olaf pharmaceuticals (USA) and cultivated in gelatin coated 25 cm^2 cell culture flasks and maintained in EGM-2 (Lonza, CC3156) supplemented with EGM-2 SingleQuots (Lonza, CC4176). The coating was performed using 1% gelatin solution (9000-70-8, Sigma Aldrich) in DPBS and was incubated for 30 min at 37° C. For on chip experiments the medium was supplemented with 1% hepes buffer (J848, AMRESCO). For the coating experiment 500 mM NaOH was inserted to the microfluidic channels, incubated for 15 min at RT, following rinsing with PBS and a protein mixture comprising 10 μg/m fibronectin (Sigma Aldrich, F4759) and […] fibrinogen conjugated with Alexa Fluor 488 (Thermo Fisher, F13191) was incubated for 1 h at 37° C.
The microfluidic device of example 1 was placed on a heating plate equipped with a temperature controller. The temperature of the plate was adjusted to reach 37° C. on top of the microdevice. For the on-chip wound healing assays the microchip was first sterilized using 70% ethanol, rinsed using a 1 M NaOH solution for 15 min and washed with PBS prior coating using a 1% gelatin solution for 1 h. Cell suspension of desired concentration was prepared and inserted into microchannels using plastic syringe (1 ml). Cells were allowed to adhere for 1 h in the absence of fluid flow followed by a constant medium perfusion of 4 μl/min using syringe pump. As soon as the cells were grown confluent (typically 1 to 2 days) cells were mechanically damaged (“squeezed”) by the PDMS membrane, which bended under force towards the cell layer. Bending was induced by manual increase of pressure load to 150 kPa (differential pressure) followed by immediate release to 0 kPa using a pressure controller. To further remove residual cell debris from the substrate multiple membrane deflections (minimum of three times) were performed. During the mechanical damaging the medium perfusion was always kept on.
The fluorescence pictures were transformed to grey scale, the contrast increased and the leading edge of the wound selected using the Magic wand tool. This image was then processed using Image) by determining the cell-free area with the tool Analyze Particles.
Next the ability to create defined and reproducible cell depletion zones within a confluent cell monolayer was evaluated using the membrane deflection method. In a series of experiments endothelial cells were seeded and cultivated in a microfluidic channel for a minimum period of 6 hours prior cell removal. During the entire wound healing assay including the cell depletion procedure the applied flow rate of 3 μl/min was kept constant to ensure complete removal of cell debris following membrane compression. In addition to maintaining an intact coating, a further aspect that may also influence cell migration is associated with the release of biochemical factors from viable but injured cells at the edge of the wounding area. To investigate whether cells located in the adjacent vicinity of the cell-free area are injured by membrane compression, dead staining using ethidium homodimer-1 was conducted in subsequent experiments. Results indicated the presence of red fluorescently labelled DNA debris present in the cell-free area following 1 h after wound induction. More importantly, none of the leading edge cells appeared damaged by the membrane compression, since only DNA from lysed cells inside the wound remained on the substrate. […]

[1] = 10 μg/ml Mitomycin-C, one hour exposure, flow rate 3 μl/min, after 6 h

Row | Compound | wound closure observed after (10 μg/ml Mitomycin-C, one hour exposure) [h] | cell-free area, times larger compared to TNF-α treated cells [1] | cell-free area, times larger compared to control experiments [1] | cell density within the wounded area (10 μg/ml Mitomycin-C, after 24 h, compared to control) | remaining cell-free area, factor larger than control experiments (1 ng/ml TNF-α in medium immediately after wound induction and maintained, 6 h post wounding)
1 | CO[C@@]12[C@H](COC(N)=O)C3=C(C(=O)C(C)=C(N)C3=O)N1C[C@@H]1N[C@@H]12 [Mitomycin-C] | 24 | 1.5 | 5 | visibly reduced | 
2 | TNF-α |  |  |  |  | 3.3

— patent US11203015B2, “Microfluidic device” (TECHNISCHE UNIVERSITAT WIEN, priority 2016, dated 2021)
